Results: patent publication US11661423B2, “Heterocyclic compounds as RET kinase inhibitors” (Cancer Research Technology Limited, priority 2016, dated 2023)

Each compound was assayed against RET (Homo sapiens (Human), UniProt P07949) (assay: RET enzyme assay (CisBio HTRF kinEASE)).
Assay type: biochemical

RET, sequence (P07949 29-1114): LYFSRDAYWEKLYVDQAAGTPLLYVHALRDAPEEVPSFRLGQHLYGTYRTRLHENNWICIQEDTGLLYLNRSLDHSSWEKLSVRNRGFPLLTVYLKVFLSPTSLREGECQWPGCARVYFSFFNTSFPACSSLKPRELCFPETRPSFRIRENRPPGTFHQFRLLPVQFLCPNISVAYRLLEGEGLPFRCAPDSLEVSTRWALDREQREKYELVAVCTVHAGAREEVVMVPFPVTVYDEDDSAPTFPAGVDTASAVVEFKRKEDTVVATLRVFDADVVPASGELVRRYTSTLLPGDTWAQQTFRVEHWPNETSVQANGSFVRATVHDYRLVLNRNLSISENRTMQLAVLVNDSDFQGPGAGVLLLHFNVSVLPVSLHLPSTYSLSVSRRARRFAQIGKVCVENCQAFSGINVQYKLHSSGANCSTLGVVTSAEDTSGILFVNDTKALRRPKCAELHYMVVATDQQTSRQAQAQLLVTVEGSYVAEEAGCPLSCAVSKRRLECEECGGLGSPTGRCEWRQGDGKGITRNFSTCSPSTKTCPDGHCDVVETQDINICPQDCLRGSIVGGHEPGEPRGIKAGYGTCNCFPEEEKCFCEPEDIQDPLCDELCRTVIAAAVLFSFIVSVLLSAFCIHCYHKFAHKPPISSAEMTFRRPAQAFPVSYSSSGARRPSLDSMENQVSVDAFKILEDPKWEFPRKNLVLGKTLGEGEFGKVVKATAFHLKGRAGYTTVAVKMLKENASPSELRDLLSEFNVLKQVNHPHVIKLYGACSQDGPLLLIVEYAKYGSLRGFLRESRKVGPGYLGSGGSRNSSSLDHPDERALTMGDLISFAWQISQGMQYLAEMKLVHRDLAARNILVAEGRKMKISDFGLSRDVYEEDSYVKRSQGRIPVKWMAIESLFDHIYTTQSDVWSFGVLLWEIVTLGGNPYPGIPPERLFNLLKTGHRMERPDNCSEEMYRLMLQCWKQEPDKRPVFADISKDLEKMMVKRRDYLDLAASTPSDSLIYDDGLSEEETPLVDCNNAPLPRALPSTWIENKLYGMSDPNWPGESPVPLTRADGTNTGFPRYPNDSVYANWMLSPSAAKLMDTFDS

| activity in the assays described in the Examples section | SMILES |
| --- | --- |
| did not exhibit the desired activity | Nc1ncnc2c1c(-c1[nH]c3ccccc3c1Cl)nn2CC1CCNC1 (centres unmarked) [3-(3-chloro-1H-indol-2-yl)-1-(pyrrolidin-3-ylmethyl)-1H-pyrazolo[3,4-d]pyrimidin-4-amine] |
| did not exhibit the desired activity | Cn1nc(-c2[nH]c3ncccc3c2Cl)c2c(N)ncnc21 [Example 65, 3-(3-Chloro-1H-pyrrolo[2,3-b]pyridin-2-yl)-1-methyl-pyrazolo[3,4-d]pyrimidin-4-amine] |
| did not exhibit the desired activity | Nc1ncnc2c1c(-c1[nH]c3ncccc3c1Cl)nn2CC(=O)O [2-(4-amino-3-(3-chloro-1H-pyrrolo[2,3-b]pyridin-2-yl)-1H-pyrazolo[3,4-d]pyrimidin-1-yl)acetic acid] |
| did not exhibit the desired activity | CC(C)(C)n1nc(-c2cc3ncccc3[nH]2)c2c(N)ncnc21 [1-tert-butyl-3-(1H-pyrrolo[3,2-b]pyridin-2-yl)pyrazolo[3,4-d]pyrimidin-4-amine] |
| did not exhibit the desired activity | CC(C)CCn1nc(-c2[nH]c3ccccc3c2Cl)c2c(N)ncnc21 [3-(3-Chloro-1H-indol-2-yl)-1-isopentyl-1H-pyrazolo[3,4-d]pyrimidin-4-amine] |
